{
  "source": "paper PMC4912218",
  "about": "“Targeted metabolomics of Gammarus pulex following controlled exposures to selected pharmaceuticals in water” (The Science of the Total Environment, 2016)",
  "key": {"in vivo": {"test": "in vivo", "conditions": "in vivo", "method": "(§1) From these toxicity profiles the NOAEL and the LOAEL were determined. Exposure experiments were performed in Pyrex® beakers, each containing 200 mL of AFW at 15 °C and ten adult animals (> 5 mg wet weight, ww). Live/dead animals were counted after 24 h by gently prodding and observing movement of appendages. The pharmaceutical concentrations tested were in the range of 0.01 to 250 mg L^− 1. […] Concentrations where 100, 50 and 0% of the animals died were repeated in duplicate or triplicate."}, "Gammarus pulex": {"system": "Gammarus pulex", "test": "in vivo", "conditions": "G. pulex", "method": "as §1"}, "[1]": {"test": "Internal pharmaceutical residue concentration in exposed G. pulex (SPE, LC-MS/MS)", "conditions": "C1 dose, 24 h", "method": "Quantification of pharmaceutical concentrations in G. pulex at the 24 h exposure interval was performed. Separate exposures were set up in triplicate in beakers containing 200 mL of exposure solution (AFW spiked with the respective C1 pharmaceutical dose) and 20 organisms. At 24 h, animals were immediately rinsed with ultra-pure water and then frozen at − 20 °C for 24 h. […] Prior to extraction, frozen G. pulex samples were lyophilised at − 50 °C under vacuum for 48 h and milled in an agate mortar to a fine powder. For each analysis, 20 mg of a lyophilised composite sample were transferred to 2 mL polypropylene tubes (Eppendorf®, Hamburg, Germany), for solid-liquid extraction (SLE). […]\nBriefly, 50 mg of lyophilised G. pulex were extracted in 5 mL of acetonitrile and pre-concentrated on Oasis HLB SPE cartridges (6 mL, 200 mg sorbent). […] Organic acids, nucleosides, nucleotides, sugars and AAs were measured using LC–HRMS. […]\nHere, pharmaceutical residue quantification in exposed G. pulex was performed by a 3-point matrix-matched calibration curve. […] L-ornithine hydrochloride, inosine, thymidine, taurine, 1.7-dimethylxanthine and (−)-riboflavin were quantified using either ^13C,^15N-proline or ^13C,^15N-tyrosine as the internal standard. The remaining 15 compounds were quantified using external calibration and the target compound itself was used as external standard. […]"}, "[2]": {"set-up": "method as in Drugbank", "conditions": "20 °C; ref Drugbank; cited from earlier work"}},
  "data": [
    {"smiles": "Oc1cc(Cl)ccc1Oc1ccc(Cl)cc1Cl", "note": "[Triclosan]", "values": [
      {"measurement": "LC50 at 24 h", "setting": "in vivo", "value": 0.57, "unit": "µg/mL"},
      {"measurement": "LC10", "setting": "Gammarus pulex; 24 h", "value": 0.20, "unit": "µg/mL"},
      {"measurement": "LOAEL (C2)", "setting": "Gammarus pulex; 24 h acute toxicity profile", "value": 0.3, "unit": "mg L^− 1"},
      {"measurement": "NOAEL (C1)", "setting": "Gammarus pulex; 24 h acute toxicity profile", "value": 0.1, "unit": "mg L^− 1"},
      {"measurement": "internal concentration in G. pulex (detection)", "setting": "[1]", "value": "not quantifiable"},
      {"measurement": "Water solubility", "setting": "[2]", "value": "12000 (20 ºC) mg L^-1"}
    ]}
  ]
}
